Structures can show the parent of a compound that is named as a salt.
Experiment: In vitro liver microsomal stability assay
Format: in vitro ADME
Conditions: '+' marks the bin; human liver microsomes 1 mg per mL protein, NADPH-generating system, 1 μM, 37° C.; compared to non-isotopically enriched drug
Protocol: Liver microsomal stability assays are conducted at 1 mg per mL liver microsome protein with an NADPH-generating system in 2% NaHCO3 (2.2 mM NADPH, 25.6 mM glucose 6-phosphate, 6 units per mL glucose 6-phosphate dehydrogenase and 3.3 mM MgCl2). Test compounds are prepared as solutions in 20% acetonitrile-water and added to the assay mixture (final assay concentration 1 μM) and incubated at 37° C. Final concentration of acetonitrile in the assay should be <1%. Aliquots (50 μL) are taken out at times 0, 0.25, […], and 1 hours, and diluted with ice cold acetonitrile (200 μL) to stop the reactions. Samples are centrifuged at 12,000 RPM for 10 min to precipitate proteins. Supernatants are transferred to micro centrifuge tubes and stored for LC/MS/MS analysis of the degradation half-life of the test compounds.

O=c1n(CCCN2CCN(c3cccc(Cl)c3)CC2)nc2ccccn12 [Example 1, 2-(3-(4-(3-Chlorophenyl)piperazin-1-yl)propyl)-[1,2,4]triazolo[4,3-a]pyridin-3(2H)one, reference compound]
% increase of HLM degradation half-life, 50%-150%: + (50%-150%)

[2H]C([2H])(CCn1nc2ccccn2c1=O)N1CCN(c2cccc(Cl)c2)CC1 [Example 2, 2-(3-(4-(3-Chlorophenyl)piperazin-1-yl)propyl-3,3-d2)-[1,2,4]triazolo[4,3-a]pyridin-3(2H)one hydrochloride]
% increase of HLM degradation half-life, >150%: + (>150%)

[2H]C([2H])(CCN1CCN(c2cccc(Cl)c2)CC1)n1nc2ccccn2c1=O [Example 3, 2-(3-(4-(3-Chlorophenyl)piperazin-1-yl)propyl-1,1-d2)-[1,2,4]triazolo[4,3-a]pyridin-3(2H)one hydrochloride]
% increase of HLM degradation half-life, 0%-50%: + (0%-50%)

[2H]C([2H])(CC([2H])([2H])n1nc2ccccn2c1=O)N1CCN(c2cccc(Cl)c2)CC1 [Example 4, 2-(3-(4-(3-Chlorophenyl)piperazin-1-yl)propyl-1,1,3,3-d4)-[1,2,4]triazolo[4,3-a]pyridin-3(2H)one hydrochloride]
% increase of HLM degradation half-life, 0%-50%: + (0%-50%)

[2H]C([2H])(N1CCN(c2cccc(Cl)c2)CC1)C([2H])([2H])C([2H])([2H])n1nc2ccccn2c1=O [Example 5, 2-(3-(4-(3-Chlorophenyl)piperazin-1-yl)propyl-1,1,2,2,3,3-d6)-[1,2,4]triazolo[4,3-a]pyridin-3(2H)one hydrochloride]
% increase of HLM degradation half-life, 0%-50%: + (0%-50%)
